Measurements as given in patent publication US8303962B2, “Antibacterial and antifungal peptides” (C3 Jian, Inc., priority 2009, dated 2012).
≈ marks a conversion by molar mass, not a printed value. Read-outs that look alike come from different tables or passages of the source. Blank lines part the entries; values can stand above or below the compound they belong to. Peptide text beside a SMILES is read from it.

Assays:
A. baumannii = type: cell-based, Acinetobacter baumannii; conditions: LB, 30° C., anaerobic
Experimental: (§1) In certain embodiments the MIC assays are performed as described herein in the Examples. For each organism, the media and growth conditions utilized is detailed in Table 8.
(§2) In certain embodiments the MIC assays are performed as follows: For each organism, the media and growth conditions utilized is detailed in Table 8.

B. subtilis = type: cell-based, Bacillus subtilis
Experimental: as §1, §2

MRSA = type: cell-based, Methicillin-resistant Staphylococcus aureus
Experimental: as §1, §2

S. pneumoniae = type: cell-based, Streptococcus pneumoniae; conditions: TSB supplemented with 5% yeast extract, 37° C., 10% CO2
Experimental: as §1, §2

T. rubrum = type: cell-based, Trichophyton rubrum; conditions: T. rubrum; Potato Dextrose Agar, 25° C., aerobic
Experimental: as §1, §2

A. niger = type: cell-based, Aspergillus niger
Experimental: as §1, §2

P. gingivalis = type: cell-based, Porphyromonas gingivalis; conditions: Columbia broth, 37° C., anaerobic
Experimental: as §1, §2

S. mutans = type: cell-based, Streptococcus mutans; conditions: TH supplemented with 1% sucrose, 37° C., anaerobic
Experimental: as §1, §2

P. aeruginosa = type: cell-based, Pseudomonas aeruginosa; conditions: MH, 37° C., aerobic
Experimental: as §1, §2

M. furfur = experiment: MIC assay, M. furfur; type: cell-based, Malassezia furfur; conditions: ATCC medium 1072, 37° C., aerobic
Experimental: as §1, §2

S. epidermidis = type: cell-based; conditions: BHI supplemented with 0.25% glucose, 37° C., aerobic
Experimental: as §1, §2

SMILES: CC[C@H](C)[C@H](NC(=O)CNC(=O)[C@@H](N)CCSC)C(=O)N[C@H](C(=O)N[C@@H](C)C(=O)NCC(=O)N[C@H](C(=O)N[C@H](C(=O)N[C@@H](CCCCN)C(=O)N[C@@H](Cc1ccccc1)C(=O)N[C@H](C(=O)N[C@@H](CCCCN)C(=O)NCC(=O)N[C@@H](CC(C)C)C(=O)N[C@H](C(=O)N[C@@H](CCC(=O)O)C(=O)N[C@@H](CCCCN)C(=O)N[C@@H](Cc1ccccc1)C(=O)N[C@H](C(=O)NCC(=O)N[C@@H](CCCCN)C(=O)O)[C@@H](C)O)[C@@H](C)CC)[C@@H](C)CC)[C@@H](C)CC)[C@@H](C)CC)[C@@H](C)CC [PF-006]
- MIC (A. baumannii): 50 µM (≈ 114 µg/mL)
- MIC (B. subtilis; B. subtilis, BHI, 30° C., aerobic): 25 µM (≈ 56.9 µg/mL)
- MIC (MRSA; MRSA, BHI supplemented with 2% glucose, 37° C., aerobic): 50 µM (≈ 114 µg/mL)

SMILES: CC(C)C[C@H](NC(=O)CNC(=O)[C@@H](N)CC(C)C)C(=O)N[C@H](C(=O)N[C@@H](C)C(=O)NCC(=O)N[C@H](C(=O)N[C@@H](C)C(=O)N[C@@H](Cc1ccc(O)cc1)C(=O)N[C@@H](C)C(=O)N[C@@H](C)C(=O)N[C@@H](CCC(N)=O)C(=O)N1CCC[C@H]1C(=O)N[C@H](C(=O)N[C@@H](CC(N)=O)C(=O)N[C@@H](CCC(N)=O)C(=O)N1CCC[C@H]1C(=O)N[C@H](C(=O)N[C@@H](CC(N)=O)C(=O)N[C@@H](CCC(N)=O)C(=O)N1CCC[C@H]1C(=O)N[C@H](C(=O)N[C@@H](CC(N)=O)C(=O)N[C@@H](CCC(N)=O)C(=O)N1CCC[C@H]1C(=O)N[C@H](C(=O)N[C@@H](CC(N)=O)C(=O)N[C@@H](CCC(N)=O)C(=O)N1CCC[C@H]1C(=O)N[C@H](C(=O)N[C@@H](CC(N)=O)C(=O)N[C@@H](CCC(N)=O)C(=O)N1CCC[C@H]1C(=O)N[C@H](C(=O)N[C@@H](CC(N)=O)C(=O)N[C@@H](CCC(N)=O)C(=O)N1CCC[C@H]1C(=O)N[C@@H](CCCNC(=N)N)C(=O)N[C@@H](Cc1c[nH]c2ccccc12)C(=O)O)[C@@H](C)O)[C@@H](C)O)[C@@H](C)O)[C@@H](C)O)[C@@H](C)O)[C@@H](C)O)C(C)C)[C@@H](C)O [PF-520] (H-LGLTAGVAYAAQPTNQPTNQPTNQPTNQPTNQPTNQPRW-OH; N-terminus and C-terminus assumed)
- MIC (S. pneumoniae): 50 µM (≈ 211 µg/mL)

SMILES: CC[C@H](C)[C@H](NC(=O)[C@H](CCCNC(=N)N)NC(=O)[C@@H](NC(=O)[C@H](CCCCN)NC(=O)[C@H](CCCCN)NC(=O)[C@H](CC(C)C)NC(=O)[C@H](CC(C)C)NC(=O)[C@H](CCCCN)NC(=O)[C@H](CCCNC(=N)N)NC(=O)[C@H](Cc1c[nH]cn1)NC(=O)[C@H](CCCCN)NC(=O)[C@H](CCCCN)NC(=O)[C@H](CCCCN)NC(=O)[C@H](C)NC(=O)[C@H](CCSC)NC(=O)[C@H](CCCNC(=N)N)NC(=O)[C@H](CCCCN)NC(=O)[C@H](CCCNC(=N)N)NC(=O)[C@H](CCCNC(=N)N)NC(=O)[C@H](CCCCN)NC(=O)[C@H](CCCCN)NC(=O)[C@@H](NC(=O)[C@@H](NC(=O)[C@H](CO)NC(=O)CN)C(C)C)[C@@H](C)CC)[C@@H](C)O)C(=O)N[C@@H](CCC(N)=O)C(=O)N[C@@H](CCCNC(=N)N)C(=O)N[C@@H](CCCNC(=N)N)C(=O)N[C@@H](CCCNC(=N)N)C(=O)N[C@@H](C)C(=O)NCC(=O)N[C@@H](CCCCN)C(=O)O [PF-527] (H-GSVIKKRRKRMAKKKHRKLLKKTRIQRRRAGK-OH; N-terminus and C-terminus assumed)
- MIC (T. rubrum): 25 µM (≈ 98.5 µg/mL)
- MIC (A. niger; A. niger, Potato Dextrose Agar, 25° C., aerobic): 50 µM (≈ 197 µg/mL)

- MIC (B. subtilis): 25 µM (≈ 49 µg/mL)
- MIC (A. niger): 50 µM (≈ 98 µg/mL)
- MIC (MRSA): 50 µM (≈ 98 µg/mL)
SMILES: CC[C@H](C)[C@H](NC(=O)[C@H](CCCNC(=N)N)NC(=O)[C@H](CCCNC(=N)N)NC(=O)[C@H](CCCNC(=N)N)NC(=O)[C@@H](NC(=O)[C@H](CCSC)NC(=O)[C@H](CC(=O)O)NC(=O)[C@H](C)NC(=O)[C@H](CCSC)NC(=O)[C@H](C)NC(=O)[C@@H](NC(=O)[C@H](CC(C)C)NC(=O)[C@H](CCCCN)NC(=O)[C@H](CO)NC(=O)[C@H](CCC(=O)O)NC(=O)[C@@H](N)CCCNC(=N)N)[C@@H](C)CC)[C@@H](C)CC)C(=O)O [PF-545] (H-RESKLIAMADMIRRRI-OH; N-terminus and C-terminus assumed)

SMILES: CC[C@H](C)[C@H](NC(=O)[C@@H](NC(=O)[C@H](CO)NC(=O)CN)C(C)C)C(=O)N[C@@H](CCCCN)C(=O)N[C@@H](CCCCN)C(=O)N[C@@H](CCCNC(=N)N)C(=O)N[C@@H](CCCNC(=N)N)C(=O)N[C@@H](CCCCN)C(=O)N[C@@H](CCCNC(=N)N)C(=O)N[C@@H](CCSC)C(=O)N[C@@H](CO)C(=O)N[C@@H](CCCCN)C(=O)N[C@@H](CCCCN)C(=O)N[C@@H](CCCCN)C(=O)N[C@@H](Cc1c[nH]cn1)C(=O)N[C@@H](CCCNC(=N)N)C(=O)N[C@@H](CCCCN)C(=O)N[C@@H](CCSC)C(=O)N[C@@H](CC(C)C)C(=O)N[C@@H](CCCNC(=N)N)C(=O)N[C@@H](CCCNC(=N)N)C(=O)N[C@H](C(=O)N[C@@H](CCCNC(=N)N)C(=O)N[C@H](C(=O)N[C@@H](CCC(N)=O)C(=O)N[C@@H](CCCNC(=N)N)C(=O)N[C@@H](CCCNC(=N)N)C(=O)N[C@@H](CCCCN)C(=O)N[C@@H](CC(C)C)C(=O)NCC(=O)N[C@@H](CCCCN)C(=O)O)C(C)C)[C@@H](C)O [PF-S028]
- MIC (P. gingivalis): 25 µM (≈ 101 µg/mL)
- MIC (T. rubrum): 50 µM (≈ 202 µg/mL)
- MIC (S. mutans): 50 µM (≈ 202 µg/mL)
- MIC (P. aeruginosa): 50 µM (≈ 202 µg/mL)
- MIC (M. furfur): 2.5 µM (≈ 10.1 µg/mL)
- MIC (S. epidermidis): 25 µM (≈ 101 µg/mL)
